What was measured:
[1] = tested on: standard strain of Pseudomonas aeruginosa; assay: bactericidal ability test, development of bacteria after contact and overnight culture; format: cell-based; conditions: ozone-oxidized glycerin of about 10 unit/g, cultured overnight at 37° C., FIG. 1
[2] = tested on: standard strain of Escherichia coli; assay: as above; format: cell-based; conditions: ozone-oxidized glycerin of about 10 unit/g, cultured overnight at 37° C., FIG. 1
[3] = tested on: standard strain of Staphylococcus aureus; assay: as above; format: cell-based; conditions: ozone-oxidized glycerin of about 10 unit/g, cultured overnight at 37° C., FIG. 1
[4] = tested on: clinical isolated strain of Salmonella; conditions: ozone-oxidized glycerin of about 10 unit/g, cultured overnight at 37° C., FIG. 1
catalase = molecular target: T1, catalase (Homo sapiens, UniProt P04040); assay: catalase test, oxidation ability in time sequence by potassium iodide titration; format: physicochemical; conditions: catalase final concentration 0.003%
T1 sequence (P04040 1-527): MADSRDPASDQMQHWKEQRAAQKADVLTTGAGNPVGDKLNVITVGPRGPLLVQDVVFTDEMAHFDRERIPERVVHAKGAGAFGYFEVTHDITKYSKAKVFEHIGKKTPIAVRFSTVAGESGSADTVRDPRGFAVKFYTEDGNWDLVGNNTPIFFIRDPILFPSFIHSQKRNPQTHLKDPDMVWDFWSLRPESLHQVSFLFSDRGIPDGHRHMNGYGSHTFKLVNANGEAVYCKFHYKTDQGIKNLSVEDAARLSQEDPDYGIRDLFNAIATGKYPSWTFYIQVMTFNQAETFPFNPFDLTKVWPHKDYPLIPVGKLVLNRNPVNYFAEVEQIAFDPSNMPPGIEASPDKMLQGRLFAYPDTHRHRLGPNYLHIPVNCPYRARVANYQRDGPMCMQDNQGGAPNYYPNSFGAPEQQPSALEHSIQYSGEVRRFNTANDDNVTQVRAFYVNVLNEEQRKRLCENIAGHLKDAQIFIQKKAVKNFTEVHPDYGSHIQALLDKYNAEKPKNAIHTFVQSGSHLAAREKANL

| time until the oxidation ability almost disappeared (catalase; 0.03% hydrogen peroxide solution, FIG. 8 left) [min] | attenuation of the oxidation ability due to catalase (catalase; FIG. 8) | Compound | bactericidal effects [1] | bactericidal effects [2] | bactericidal effects [3] | bactericidal effects [4] |
| --- | --- | --- | --- | --- | --- | --- |
| – | – | OCC(O)CO [glycerin] | not recognized | not recognized | not recognized | not recognized |
| 5 | rapidly attenuated | OO [hydrogen peroxide] | – | – | – | – |

Source: patent US6781020B2, “Water soluble bactericide and producing method thereof” (VMC Co., Ltd., priority 2001, dated 2004)
